Assay results as given in EP0960886B1, “Peptide T and related peptides in the treatment of inflammation, including multiple sclerosis” (priority 1992, dated 1993).
Square brackets hold non-standard residues; d marks the D form. Ends that are not written are not given here. Peptide text beside a SMILES is read from it.

Assays:
LPS = LPS toxicity and survival in mice bearing Meth A ascites tumours (Example 7); assay type: in vivo; conditions: 100 µg LPS subcutaneously with 1mg analogue
Procedure: Mice bearing Meth A ascites tumours were given 100 µg LPS subcutaneously with either bovine serum albumin (BSA) or peptide T analogue (504 or 505, 1mg). The number of animals showing signs of LPS toxicity (diarrhoea, exudate from the eyes and general level of activity) in each group was recorded at 19, 24 and 41 hours after injection. At the completion of the experiment the number of surviving animals was recorded (see Table II below) and the survivors bled for later determination of TNF, IL-1, IL-6 and RNI levels.

[1] = spinal administration to rats; tail-flick latency and tail-shock induced vocalisation; cited from earlier work
[2] = test system: mouse foetal hippocampal neurons; conditions: cultures of mouse foetal hippocampal neurons; cited from earlier work
human neutrophils [3] = assay: LPS-induced neutrophil chemiluminescence; assay type: cell-based; conditions: LPS 0.005µg/ml
Procedure: (§1) Neutrophils. Neutrophils were isolated from whole blood from healthy blood donors. Separation was achieved by the rapid-single-step method of centrifugation of whole blood on FICOLL-HYPAQUE™. These were >99% viable and usually >98% pure.
(§2) Peptides and TNF. TNF was a recombinant product produced in E. coli. Peptide T and analogue 505 (D-Ser-Ser-D-Thr-Thr-D-Thr-Thr-Tyr-D-Thr) were resuspended in Hank's Balanced Salt Solution (HBSS).
(§3) To 100µl of 500-1000U/ml of TNF was added 10µl of peptide and after 5 min 100µl of 1x10^7 neutrophils/ml was added. The cells further incubated at 37°C/20 min and then tested for chemiluminescence activity. In some cases an agonist such as fMLP (10^-7M) was added. Chemiluminescence was measured in a luminometer (LKB). The results for Peptide T are presented in Figure 12 as peak rate of CL release. Lucigenin-dependent chemiluminescence was measured: this represents superoxide measurement. In another set of experiments the effects of analogue 505 on the LPS-induced neutrophil chemiluminescence were examined. In this case the LPS was essentially substituted for the TNF. The concentration of LPS was 0.005µg/ml.

human neutrophils [4] = assay: TNF-induced neutrophil chemiluminescence (lucigenin-dependent); assay type: cell-based; conditions: 500-1000U/ml TNF
Procedure: as §1, §2, §3

Compound	% mice surviving 41 hours (LPS) [%]	% mice with diarrhoea at 19 hrs (LPS) [%]	% mice with exudate at 19 hrs (LPS) [%]	analgesia [1]	gp120-induced neurotoxicity [2]	LPS activation of human neutrophils (human neutrophils [3])	TNF priming and activation of human neutrophils (human neutrophils [4])
C[C@H](O)[C@@H](NC(=O)[C@H](Cc1ccc(O)cc1)NC(=O)[C@H](CC(N)=O)NC(=O)[C@H](NC(=O)[C@@H](NC(=O)[C@H](NC(=O)[C@H](CO)NC(=O)[C@@H](C)N)[C@H](C)O)[C@@H](C)O)[C@H](C)O)C(N)=O [analogue 504]	100	40	60	–	–	–	–
human vasoactive intestinal peptide (HSDAVFTDNYTRLRKQMAVKKYLNSILN; ends and bridges not checked; UniProt P01282 125-152, looked up) [VIP, reference compound]	–	–	–	produced analgesia	completely eliminated	–	–
C[C@H](O)[C@@H](NC(=O)[C@H](Cc1ccc(O)cc1)NC(=O)[C@@H](NC(=O)[C@H](NC(=O)[C@@H](NC(=O)[C@H](NC(=O)[C@H](CO)NC(=O)[C@H](N)CO)[C@H](C)O)[C@@H](C)O)[C@H](C)O)[C@@H](C)O)C(N)=O [analogue 505, D-Ser-Ser-D-Thr-Thr-D-Thr-Thr-Tyr-D-Thr] (H-[dS]S[dT]T[dT]TY[dT]-NH2)	100	40	20	–	–	inhibits LPS activation	inhibits TNF priming and activation
